Here are results for five compounds from patent publication US4221724A, “Antibiotic X-14766A” (Hoffmann-La Roche Inc., priority 1978, dated 1980).

What is called LD50 is the dose expected to kill half of the subjects tested. Low values mean greater toxicity, high ones lower toxicity. Broadly, the ED50 is the midpoint of the dose-response relation. A lower ED50 goes with greater potency.

In brackets after ≈: the same amount, converted by molar mass. Several values for one entry are separate records, joined by “and”; a condition that tells them apart may be missing. Equal entries are not always repeated.

The nature of series [1]: toxicity (LD50) in mice. Particulars: mouse, in vivo.
Series [2] concerns Staphylococcus aureus ATCC 6538P. Nature of the series: antibacterial activity, Minimum Inhibitory Concentration (Table 4). In kind it is cell-based. As to conditions: ATCC6538P.
Series [3] deals with Sarcina lutea ATCC 9341. The series is described as above. In kind it is cell-based. As to conditions: Micrococcus luteus, ATCC9341.
Series [4] relates to Bacillus sp. E ATCC 27859. Described as above. Format: cell-based. As to conditions: ATCC27859.
The subject of series [5] is Bacillus subtilis Nrrl 558. The description is as above. Format: cell-based. As to conditions: NRRL558.
For series [6], the system named is Bacillus megaterium ATCC 8011. The description is as above. Format: cell-based. Particulars: Priestia megaterium, ATCC8011.
The test system of series [7] is Bacillus sp. TA ATCC 27860. The description is as above. Particulars: ATCC27860. In kind it is cell-based.
Series [8] deals with Mycobacterium phlei ATCC 355. The description is as above. Format: cell-based. Particulars: Mycolicibacterium phlei, ATCC355.
The test system of series [9] is Streptomyces cellulosae ATCC 3313. The description is as above. Format: cell-based. As to conditions: ATCC3313.
In series [10] the test system is Plasmodium bergei. Nature of the series: antimalarial activity against Plasmodium bergei in mice. Format: in vivo.
In series [11] the test system is Bacteroides fragilis ATCC 12290. Put plainly: in vitro activity against anaerobic bacteria, two-fold serial broth dilution (Table 5). Format: cell-based. Particulars: ATCC12290, trypticase soy broth, 37° C. overnight, read-out: Minimum Inhibitory Concentration. (In general: Broth dilution looks for growth in wells or tubes with falling amounts of substance.)
Series [12] deals with Clostridium histolyticum 503-86. The description is as above. Format: cell-based. Particulars: Hathewaya histolytica, 50386, trypticase soy broth, 37° C. overnight, read-out: Minimum Inhibitory Concentration. How it is done: (§1) *Two-fold serial broth dilution tests were carried out using trypticase
(§2) soy broth (TSB, BBL) as the test medium. All tests were incubated at
(§3) 37° C. overnight under anaerobic conditions.

In series [13] the test system is Clostridium septicum 503-34. The series is described as above. Format: cell-based. Particulars: 50334, trypticase soy broth, 37° C. overnight, read-out: Minimum Inhibitory Concentration. How it is done:
as §1, §2, §3

The test system of series [14] is Treponema hyodysenteriae strain B140. Put plainly: activity against Treponema hyodysenteriae, blood agar plate dilution MIC. Format: cell-based. As to conditions: 48 hours, 42° C., anaerobic, in µg/mL. The text has this: (§4) Testing for activity against Treponema hyodysenteriae, a cause of swine dysentery consisted of inoculation of blood agar plates containing a series of two and fourfold dilutions of antibiotic X-14766A and ipronidazole, an agent used in the treatment of swine dysentery, with tenfold dilutions of each of the T. hyodysenteriae strains (H 78, H 140, H 179).

Series [15] deals with Treponema hyodysenteriae strain B179. Described as above. Format: cell-based. Particulars: Steers inoculation, 48 hours, 42° C., anaerobic, in µg/mL.
Text: as §4

The subject of series [16] is Treponema hyodysenteriae strain B78. The description is as above. Format: cell-based. As to conditions: 48 hours, 42° C., anaerobic, in µg/mL.
Text: as §4

The subject of series [17] is rumen fluid (in vitro rumen fermentations). The arrangement: species or system bovine. Particulars: for Percent Production of Control Fermantations: Rate of Gas Production / Percent Production of Control Fermantations: Total VFA(%): rumen fluid, 240 min.

For `CCOC(=O)C1OC(C2(C)OC3(OC4(C=CC3O)OC(C(C)C(=O)C(C)C(O)C(C)CC(C)c3c(Cl)cc(C)c(O)c3C(=O)O)C(C)CC4C)C(C)C2OC)CC1O` (centres unmarked) [Antibiotic X-14766A], the LD50 turned out to be 5.75 mg/kg in series [1] (ip) and 350 mg/kg in [1] (po). Also, the MIC came out at 0.2 µg/mL (≈ 0.238 µM) in series [2]; 0.2 µg/mL (≈ 0.238 µM) in [3]; 0.04 µg/mL (≈ 0.0477 µM) in series [4]; 0.2 µg/mL (≈ 0.238 µM) in [5]; 0.08 µg/mL (≈ 0.0953 µM) in series [6]; 0.08 µg/mL (≈ 0.0953 µM) in series [7]. Further, the MIC is 0.2 µg/mL (≈ 0.238 µM) in [8]; 0.2 µg/mL (≈ 0.238 µM) in [9]; 0.195 µg/mL (≈ 0.232 µM) in series [11]; 0.0098 µg/mL (≈ 0.0117 µM) in [12]; 0.0098 µg/mL (≈ 0.0117 µM) in [13]; < 0.04 and 0.04 in [14] (Steers inoculation). Moreover, the MIC in [14] (Syringe inoculation) is 0.02 and 0.04; in series [15], < 0.04 and 0.02; in series [16] (Steers inoculation), < 0.04 and 0.02; in series [16] (Syringe inoculation) it was 0.02 and 0.04. In series [10], the ED50 was found to be 2.5 mg/kg. Also, the “C3 /C2 + nC4” value in series [17] is 0.501 and 0.488. Also, the “Percent Production of Control Fermantations: Rate of Gas Production” value (from here on “Percent Production … of Gas Production”) in series [17] is 90% and 89%. Further, the “Percent Production of Control Fermantations: Total VFA(%)” value (shortened to “Percent Production … Total VFA(%)”) in [17] was 150.1% and 138.7%.

`CC(C)c1ncc([N+](=O)[O-])n1C` [Ipronidazole, ipronidazole, reference compound]: the MIC in series [14] (Steers inoculation) is 0.16 and 0.31; in series [14] (Syringe inoculation) it was 0.63; in series [15], 0.16 and 0.31; in series [16] (Steers inoculation), 0.16 and 0.31; in [16] (Syringe inoculation) it was 0.63.

As to `CC[C@@]1([C@@H]2O[C@@H]([C@H]3O[C@@](O)(CO)[C@H](C)C[C@@H]3C)C[C@@H]2C)CC[C@H]([C@]2(C)CC[C@]3(C[C@H](O)[C@@H](C)[C@@H]([C@@H](C)[C@@H](OC)[C@H](C)C(=O)O)O3)O2)O1` [Monensin], in series [17], the “C3 /C2 + nC4” value was 0.565 and 0.575; the “Percent Production … of Gas Production” value is 89% and 85%; the “Percent Production … Total VFA(%)” value was 105.3% and 110.7%.

For `CC[C@@H](C(=O)O)[C@@H]1O[C@@H]([C@@H](C)[C@H](O)[C@H](C)C(=O)[C@H](CC)[C@H]2O[C@]3(C=C[C@@H](O)[C@]4(CC[C@@](C)([C@H]5CC[C@](O)(CC)[C@H](C)O5)O4)O3)[C@H](C)C[C@@H]2C)[C@@H](C)C[C@@H]1C` [Narasin], in series [17], the “C3 /C2 + nC4” value was 00.583 and 0.581; the “Percent Production … of Gas Production” value was 86% and 88%.

`CCC(C(=O)O)C1CCC(C)C(C(C)C(O)C(C)C(=O)C(CC)C2OC3(C=CC(O)C4(CCC(C)(C5CCC(O)(CC)C(C)O5)O4)O3)C(C)CC2C)O1` (centres unmarked) [Salino]: in series [17], the “C3 /C2 + nC4” value was 0.497 and 0.512; the “Percent Production … of Gas Production” value is 83% and 90%; the “Percent Production … Total VFA(%)” value was 146.9% and 145.5%.
